Results: patent US8440724B2, “Inhibiting neurotransmitter reuptake” (Mayo Foundation for Medical Education and Research, priority 2008, dated 2013)
“Also recorded” adds a separate entry of the source. Like-named read-outs stand apart in the source and are kept apart here.

How the values were obtained:
[1] = target: T1, human serotonin transporter (hSERT) (Homo sapiens, UniProt P31645); test: Radioligand binding to cloned hSERT, [3H]citalopram, HEK-293 cell membranes; details: for Kd: Geometric Mean ± SEM, HCl salts, read-out: Equilibrium Dissociation Constant (KD) for Transporter Binding, hSERT (S); for Binding at hSERT compared to PRC200-SS: in words
T1 construct: expressed in transfected cells; host or cells: HEK-293, stably transfected
Method: (§1) HEK-293 cells expressing the recombinant hSERT or hDAT were incubated with Dulbecco's modified Eagles medium (MEM) supplemented with 0.1 mM nonessential amino acid solution for MEM, 5% v/v fetal bovine serum and 1 U/mL penicillin/streptomycin solution. Cells expressing the hNET transporter were incubated with Dulbecco's modified Eagles medium supplemented with 10% v/v fetal bovine serum and 100 U/mL penicillin/streptomycin solution and 2 mM L-glutamine. The cells were grown until 70-80% confluent on 175 cm^2 flasks in a humidified 10% CO2/90% air environment at 37° C., with the selecting antibiotic Geneticin sulfate at 250 μg/mL. The cells were incubated in 10% CO2, 90% air at 37° C. and 100% humidity.
(§2) Cell membranes containing hSERT, hNET, or hDAT were prepared from the cell lines to assay ligand binding for each of the transporters. […] The washed cells were incubated for 5 minutes at 37° C. in 10 mL solution 1 containing 100 mM ethylene glycol-bis N,N,N′,N′-tetraacetic acid (EGTA). The cells were then scraped from the flask surface with a rubber spatula, placed into a centrifuge tube, and collected by centrifugation at 1000×g for 5 minutes at 4° C. The resulting supernatant was discarded, and the cell pellet was resuspended in 0.5 to1.0 mL of the appropriate binding buffer (described below). The resuspended cell pellet was homogenized using a Polytron for 10 seconds at setting 6. The resulting homogenate was centrifuged at about 36,000×g for 10 minutes at 4° C. The supernatant was discarded, and the pellet was resuspended in the same volume of the appropriate binding buffer and centrifuged again. The supernatant was discarded, and the final pellet containing cell membranes was resuspended in the appropriate binding buffer and stored at −80° C. until use.
Radioligand binding assays for the indicated transporters were performed as follows. To assess binding to the cloned hSERT, cells expressing hSERT were homogenized in 50 mM Tris-HCl with 120 mM NaCl and 5 mM KCl (pH 7.4). The binding reaction consisted of 10 μg cell membrane protein, […] [^3H]citalopram (citalopram, [N-methyl-^3H], specific activity 79.0 Ci/mmol; PerkinElmer, Boston, Mass.), and varying concentrations of either unlabeled citalopram or the test compound. A reaction to determine non-specific binding consisted of 10 μg cell membrane protein, 0.5 nM [^3H]citalopram, and 1 μM final concentration of unlabeled citalopram. The reactions were incubated at 22° C. for 60 minutes. Following incubation, the reactions were terminated by rapid filtration through separate GF/B filter strips pretreated with 0.2% polyethylenimine in a 48-well Brandel cell harvester. The cell membrane-containing filter strips were then rinsed five times with ice-cold 0.9% NaCl. After rinsing, individual filters were cut from the strip and placed in a scintillation vial containing 6.5 mL of Redi-Safe (Beckman-Coulter, Fullerton, Calif.).
(§3) The program was modified to calculate the Hill coefficient (nH). Data are presented as geometric mean±S.E.M. of at least three independent experiments. One-component models and two-component models were compared using the root mean square error of each fit and the F test.

[2] = target: T2, human norepinephrine transporter (hNET) (Homo sapiens, UniProt P23975); test: Radioligand binding to cloned hNET, [3H]nisoxetine, HEK-293 cell membranes; details: Geometric Mean ± SEM; HCl salts; read-out: Equilibrium Dissociation Constant (KD) for Transporter Binding, hNET (N)
T2 construct: expressed in transfected cells; host or cells: HEK-293, stably transfected
Method: as §1, §2
To assess binding to the cloned hNET, cells expressing hNET were homogenized in 50 mM Tris-HCl with 300 mM NaCl and 5 mM KCl (pH 7.4). The binding reaction consisted of 5 μg cell membrane protein, 0.5 nM [^3H]nisoxetine (nisoxetine HCl, [N-methyl-^3H], specific activity 82.0 Ci/mmol; Amersham, Arlington Hts., Ill.), and varying concentrations of either unlabeled nisoxetine or the test compound. A reaction to determine non-specific binding consisted of 5 μg cell membrane protein, 0.5 nM [^3H]nisoxetine, and 1 μM final concentration of unlabeled nisoxetine. The reactions were incubated at 22° C. for 60 minutes. Following incubation, the reactions were terminated by rapid filtration through separate GF/B filter strips pretreated with 0.2% polyethylenimine in a 48-well Brandel cell harvester. The cell membrane-containing filter strips were then rinsed five times with ice-cold 0.9% NaCl. After rinsing, individual filters were cut from the strip and placed in a scintillation vial containing 6.5 mL of Redi-Safe (Beckman-Coulter, Fullerton, Calif.).
as §3

[3] = target: T3, human dopamine transporter (hDAT) (Homo sapiens, UniProt Q01959); test: Radioligand binding to cloned hDAT, [3H]WIN35428, HEK-293 cell membranes
T3 construct: expressed in transfected cells; host or cells: HEK-293, stably transfected
Method: as §1, §2
To assess binding to the cloned hDAT, cells expressing hDAT were homogenized in 50 mM Tris-HCl with 120 mM NaCl (pH 7.4). The binding reaction contained 15 μg cell membrane protein, 1 nM [^3H]WIN35428 (WIN35428, [N-methyl-^3H], specific activity 85.9 Ci/mmol; PerkinElmer, Boston, Mass.), and varying concentrations of either unlabeled WIN35428 or the test compound. A reaction to determine non-specific binding contained 15 μg cell membrane protein, 1 nM [^3H]WIN35428, and 10 μM final concentration of unlabeled WIN35428. The reactions were incubated at 22° C. for 1 hour. Following incubation, the reactions were terminated by rapid filtration through separate GF/B filter strips pretreated with 0.2% polyethylenimine in a 48-well Brandel cell harvester. The cell membrane-containing filter strips were then rinsed five times with ice-cold 0.9% NaCl. After rinsing, individual filters were cut from the strip and placed in a scintillation vial containing 6.5 mL of Redi-Safe (Beckman-Coulter, Fullerton, Calif.).
as §3

hSERT, hNET, hDAT = test: Human transporter binding: rank order and range of potency over the three transporters; details: for Potency (rank-order of potency of binding; S = hSERT, N = hNET, D = hDAT): from KD values; for Potency Range (difference between most potent and least potent binding): ratio of KD over hSERT, hNET, hDAT
Excerpt: as §3

Male Sprague-Dawley rats = test: Forced swim test in rats; format: in vivo, rat; details: for Antidepressant activity in forced swim test compared with imipramine (15 mg/kg IP): FIG. 12A
Method: When rats are placed in a cylinder of water from which they cannot escape, they will remain immobile in the water for the majority of the test.
Water was changed between trials, and the procedure involved a pretest and a 5-minute test separated by 24 hours. During the pretest, rats (adapted to the experimental room for no less than one hour) were placed in the cylinder for 15 minutes. Following this initial exposure, the rats were dried with towels and transferred to a “drying cage” situated under a warming lamp. […] The following day, rats were transferred to the experimental room and acclimated for at least one hour.
The rat was considered immobile when floating motionless or making only those movements necessary to keep its head above the surface of the water. Scores for each behavior (swimming or immobility) were expressed as total counts per 5-minute session. Statistical analysis was performed using ANOVA followed by the Tukey test for post-hoc comparisons.

hERG = hERG (Homo sapiens, UniProt Q12809); test: hERG assay: block of rubidium ion (Rb+) efflux from cells expressing hERG
Method: Human “ether-a-go-go” (hERG) is an ion channel. Blockade of this channel can be predictive of causing cardiac arrhythmias in humans. hERG assays were performed to measure the ability of a compound to block rubidium ion (Rb^+) efflux from cells expressing hERG. Cells were pre-loaded with Rb^+, incubated with test compound, and then exposed to a buffer that opens the channel and allows the efflux of ions. Compounds as powder were dissolved in 100% DMSO to prepare 100 mM stock solutions. […] The stocks were stored at 23° C.
The range of doses for the test compounds was 30 nM through 100,000 nM.

CYP2D6 = target: T4, CYP2D6 (Homo sapiens, UniProt P10635); test: CYP2D6 inhibition, CYP2D6/AMMC kit (BD Biosciences), fluorescent substrate; format: in vitro ADME
T4 construct: purchased BD Biosciences 459200
Excerpt: This kit includes the use of a fluorescent P450 substrate (AMMC or 3-[2-(N,N-diethyl-N-methylamino)ethyl]-7-methoxy-4-methylcoumarin) and recombinant human P450.

[4] = test system: rat 5-HT, NE and DA transport, synaptosomal preparations; test: Rat brain synaptosomal transport: rank order of potency; format: biochemical
Method: The dissected tissues were separately homogenized in 20 volumes (cortical) or 40 volumes (striatal) of ice-cold, oxygenated HEPES buffer 0.32 M sucrose containing 11 mM glucose (pH 7.4) in a glass Potter-Elvehjem homogenizer with Teflon® pestle (8 strokes, 900 rpm). The homogenates were centrifuged at 1,000×g for 10 minutes. The resulting supernatant was decanted and further centrifuged at 20,000×g for 20 minutes at 4° C. […] The synaptosomal protein concentration was determined by using the BCA assay (Pierce Biotechnology Inc, Rockford, Ill.), according to the manufacturer's instructions. Synaptosomal protein (1.0-2.5 mg) was suspended in 1 mL oxygenated incubation buffer as defined above. Test amine compound was pre-incubated with the synaptosomal preparation for 30 minutes at 37° C. in a shaking water bath (80 oscillations/minute).

T2 sequence (P23975 whole entry): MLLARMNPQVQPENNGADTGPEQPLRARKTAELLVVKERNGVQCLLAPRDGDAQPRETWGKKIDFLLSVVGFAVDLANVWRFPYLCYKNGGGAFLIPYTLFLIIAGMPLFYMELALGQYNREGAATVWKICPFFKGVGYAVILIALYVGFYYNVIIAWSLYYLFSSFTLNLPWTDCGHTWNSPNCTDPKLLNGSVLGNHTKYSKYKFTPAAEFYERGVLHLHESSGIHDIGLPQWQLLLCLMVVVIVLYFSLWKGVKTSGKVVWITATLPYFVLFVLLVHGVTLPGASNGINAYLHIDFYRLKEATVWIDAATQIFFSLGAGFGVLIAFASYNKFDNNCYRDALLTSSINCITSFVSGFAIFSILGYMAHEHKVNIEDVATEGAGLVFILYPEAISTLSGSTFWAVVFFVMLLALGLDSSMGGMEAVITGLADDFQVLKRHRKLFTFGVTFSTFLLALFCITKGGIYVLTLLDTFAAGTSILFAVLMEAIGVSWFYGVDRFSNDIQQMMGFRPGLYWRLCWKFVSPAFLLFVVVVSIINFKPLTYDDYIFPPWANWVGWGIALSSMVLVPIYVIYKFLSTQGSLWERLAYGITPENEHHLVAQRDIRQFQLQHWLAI
T1 sequence (P31645 whole entry): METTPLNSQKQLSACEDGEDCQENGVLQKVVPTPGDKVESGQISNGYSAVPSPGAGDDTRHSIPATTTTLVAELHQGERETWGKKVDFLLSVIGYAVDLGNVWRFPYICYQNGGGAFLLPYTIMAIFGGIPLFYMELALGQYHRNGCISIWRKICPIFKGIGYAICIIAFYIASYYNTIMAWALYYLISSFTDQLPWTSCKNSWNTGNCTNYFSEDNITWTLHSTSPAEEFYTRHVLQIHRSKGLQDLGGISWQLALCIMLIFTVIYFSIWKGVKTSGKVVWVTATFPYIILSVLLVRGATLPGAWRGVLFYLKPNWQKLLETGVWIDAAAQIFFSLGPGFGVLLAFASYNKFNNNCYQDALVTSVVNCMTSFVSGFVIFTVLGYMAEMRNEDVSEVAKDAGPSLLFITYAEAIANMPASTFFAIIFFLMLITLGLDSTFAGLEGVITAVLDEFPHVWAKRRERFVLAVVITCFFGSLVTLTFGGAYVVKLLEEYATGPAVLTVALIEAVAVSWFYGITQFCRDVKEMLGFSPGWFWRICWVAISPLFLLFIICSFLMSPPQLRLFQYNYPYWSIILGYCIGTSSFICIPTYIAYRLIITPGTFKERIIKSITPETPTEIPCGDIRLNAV
T3 sequence (Q01959 whole entry): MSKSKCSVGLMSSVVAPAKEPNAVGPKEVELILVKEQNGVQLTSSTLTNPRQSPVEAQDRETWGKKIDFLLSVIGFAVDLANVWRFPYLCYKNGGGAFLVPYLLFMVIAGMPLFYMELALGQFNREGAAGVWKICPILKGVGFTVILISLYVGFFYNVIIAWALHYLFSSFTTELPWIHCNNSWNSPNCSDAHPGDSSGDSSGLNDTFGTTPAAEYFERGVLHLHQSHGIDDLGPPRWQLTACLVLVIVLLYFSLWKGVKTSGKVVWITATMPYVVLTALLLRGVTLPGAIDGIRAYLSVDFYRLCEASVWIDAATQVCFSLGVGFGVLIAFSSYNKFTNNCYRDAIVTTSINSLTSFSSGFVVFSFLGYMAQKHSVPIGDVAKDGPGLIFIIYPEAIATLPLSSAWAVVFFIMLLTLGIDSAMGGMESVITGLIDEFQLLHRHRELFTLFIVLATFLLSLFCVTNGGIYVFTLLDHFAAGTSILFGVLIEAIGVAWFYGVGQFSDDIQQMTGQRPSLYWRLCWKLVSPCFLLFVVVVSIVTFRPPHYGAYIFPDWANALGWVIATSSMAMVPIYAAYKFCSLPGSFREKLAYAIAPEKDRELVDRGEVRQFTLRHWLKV
T4 sequence (P10635 whole entry): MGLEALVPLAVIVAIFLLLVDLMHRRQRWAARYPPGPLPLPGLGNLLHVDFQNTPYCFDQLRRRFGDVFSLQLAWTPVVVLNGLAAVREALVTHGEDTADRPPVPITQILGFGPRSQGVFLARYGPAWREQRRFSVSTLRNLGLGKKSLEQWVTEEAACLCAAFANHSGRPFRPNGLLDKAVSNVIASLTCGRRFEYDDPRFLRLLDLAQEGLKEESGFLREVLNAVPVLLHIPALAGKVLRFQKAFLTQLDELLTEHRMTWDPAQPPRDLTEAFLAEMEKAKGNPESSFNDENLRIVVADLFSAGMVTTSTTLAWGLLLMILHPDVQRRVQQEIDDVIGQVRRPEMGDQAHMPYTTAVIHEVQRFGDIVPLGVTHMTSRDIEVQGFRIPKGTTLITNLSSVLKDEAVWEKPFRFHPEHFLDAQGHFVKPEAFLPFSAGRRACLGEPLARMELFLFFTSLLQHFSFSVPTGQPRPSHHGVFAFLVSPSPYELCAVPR
Sequence of hERG (Q12809 whole entry): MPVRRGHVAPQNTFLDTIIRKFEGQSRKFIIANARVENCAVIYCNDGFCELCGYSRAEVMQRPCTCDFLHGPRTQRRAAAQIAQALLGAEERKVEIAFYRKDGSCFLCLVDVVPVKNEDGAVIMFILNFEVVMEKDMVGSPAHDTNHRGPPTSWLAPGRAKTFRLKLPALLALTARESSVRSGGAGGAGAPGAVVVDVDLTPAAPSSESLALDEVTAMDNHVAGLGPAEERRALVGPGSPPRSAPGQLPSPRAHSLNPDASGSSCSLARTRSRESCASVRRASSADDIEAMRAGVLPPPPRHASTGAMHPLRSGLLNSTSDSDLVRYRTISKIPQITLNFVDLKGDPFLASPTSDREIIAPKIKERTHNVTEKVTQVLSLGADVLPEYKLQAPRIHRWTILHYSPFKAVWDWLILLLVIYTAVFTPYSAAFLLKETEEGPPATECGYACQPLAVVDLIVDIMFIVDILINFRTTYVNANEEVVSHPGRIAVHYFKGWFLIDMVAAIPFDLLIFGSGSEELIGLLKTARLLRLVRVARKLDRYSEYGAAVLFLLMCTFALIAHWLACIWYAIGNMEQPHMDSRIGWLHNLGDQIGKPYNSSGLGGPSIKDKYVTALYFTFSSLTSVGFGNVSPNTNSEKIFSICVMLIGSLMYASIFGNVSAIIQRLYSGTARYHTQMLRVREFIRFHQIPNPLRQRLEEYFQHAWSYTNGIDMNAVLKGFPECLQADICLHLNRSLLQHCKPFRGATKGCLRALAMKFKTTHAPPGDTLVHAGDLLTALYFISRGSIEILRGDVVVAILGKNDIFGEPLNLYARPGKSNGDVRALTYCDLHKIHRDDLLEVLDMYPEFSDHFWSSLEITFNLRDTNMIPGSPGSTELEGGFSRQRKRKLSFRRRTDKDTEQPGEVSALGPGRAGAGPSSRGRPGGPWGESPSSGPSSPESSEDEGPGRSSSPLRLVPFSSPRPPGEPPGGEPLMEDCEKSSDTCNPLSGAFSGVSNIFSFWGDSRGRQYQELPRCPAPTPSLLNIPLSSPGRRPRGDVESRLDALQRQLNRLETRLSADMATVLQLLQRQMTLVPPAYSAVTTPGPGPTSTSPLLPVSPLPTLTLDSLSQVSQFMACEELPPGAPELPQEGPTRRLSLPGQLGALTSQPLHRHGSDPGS

Row | SMILES | Kd [1] [nM] | Binding at hSERT compared to PRC200-SS [1] | Kd [2] [nM] | Kd [3] [nM] | Binding at hDAT compared to PRC200-SS ([3]; in words) | Potency (rank-order of potency of binding; S = hSERT, N = hNET, D = hDAT) (hSERT, hNET, hDAT) | Potency Range (difference between most potent and least potent binding) (hSERT, hNET, hDAT) [fold] | Immobility in forced swim test vs saline (Male Sprague-Dawley rats; 5 mg/kg IP) | Swimming in forced swim test vs saline (Male Sprague-Dawley rats; 5 mg/kg IP) | Antidepressant activity in forced swim test compared with imipramine (15 mg/kg IP) (Male Sprague-Dawley rats; 5 mg/kg IP) | IC50 (hERG) [µM] | Kd ([3]; Geometric Mean ± SEM, HCl salts, read-out: Equilibrium Dissociation Constant (KD) for Transporter Binding, hDAT (D)) [nM] | IC50 (CYP2D6) [µM] | Immobility in forced swim test, 5 mg/kg IP vs 5 mg/kg PO of the same compound (Male Sprague-Dawley rats) | Immobility in forced swim test vs saline (Male Sprague-Dawley rats; 5 mg/kg IP, 5 mg/kg) | Swimming in forced swim test vs saline (Male Sprague-Dawley rats; 5 mg/kg IP, 5 mg/kg) | Climbing in forced swim test vs saline (Male Sprague-Dawley rats; 5 mg/kg PO) | Immobility in forced swim test vs saline (Male Sprague-Dawley rats; 5 mg/kg PO) | Swimming in forced swim test vs saline (Male Sprague-Dawley rats; 5 mg/kg PO) | Potency (rank order, transport into rat brain synaptosomal preparations) [4]
1 | CNC[C@H](c1ccc2ccccc2c1)[C@@H](Cl)c1ccccc1 [MCJ001-Cl-RS, (2S,3R)-3-chloro-N-methyl-2-(naphthalen-2-yl)-3-phenylpropan-1-amine] | 1.1 ± 0.1 | greater binding at hSERT | 10.4 ± 0.4 | 7.9 ± 0.4 | several fold more potent binding at hDAT | S > D > N | 9.5 | statistically (P<0.04) less immobility | statistically (P<0.04) more swimming behavior | antidepressant activity that was similar to that observed in rats treated with the positive control | – | – | – | – | – | – | – | – | – | –
2 | CNC[C@H](c1ccc2ccccc2c1)[C@H](Cl)c1ccccc1 [MCJ001-Cl-SS, (2S,3S)-3-chloro-N-methyl-2-(naphthalen-2-yl)-3-phenylpropan-1-amine] | 1.1 ± 0.1 | greater binding at hSERT | 3.7 ± 0.5 | 78 ± 5 | – | S > N > D | 71 | statistically (P<0.04) less immobility | statistically (P<0.04) more swimming behavior | antidepressant activity that was similar to that observed in rats treated with the positive control | 45.4 | – | – | – | – | – | – | – | – | –
3 | CNC[C@@H](c1ccc2ccccc2c1)[C@H](N)c1ccccc1 [MCJ001-NH2-SR, (2R,3S)-N1-methyl-2-(naphthalen-2-yl)-3-phenylpropane-1,3-diamine] | 180 ± 10 | – | 166 ± 8 | – | – | N > S > D | 1.6 | – | – | – | – | 260 ± 20 | 4.1 | – | – | – | – | – | – | –
4 | CN1CO[C@H](c2ccccc2)[C@@H](c2ccc3ccccc3c2)C1 [MCJ001-OH-Cyc-SS, (5S,6S)-3-methyl-5-(naphthalen-2-yl)-6-phenyl-1,3-oxazinane] | 1.8 ± 0.2 | greater binding at hSERT | 2.7 ± 0.3 | 52 ± 5 | – | S > N > D | 29 | – | – | antidepressant activity that was similar to that observed in rats treated with the positive control | – | – | – | statistically (P≦0.04) less immobility than rats treated with MCJ001-OH-Cyc-SS (5 mg/kg PO) | statistically (P<0.04) less immobility; also recorded: statistically (P≦0.04) less immobility | statistically (P<0.04) more swimming behavior | statistically (P≦0.04) more climbing | statistically (P≦0.04) less immobility | statistically (P≦0.04) more swimming | –
5 | CN1Cc2c(N)cccc2C(c2ccccc2)C1 (centres unmarked) [Nomifensine, reference compound] | – | – | – | – | – | N > D > S | – | – | – | – | – | – | – | – | – | – | – | – | – | N > D > S
